Inhibition data for 65 compounds are collected here from paper PMC8041284, “Tunable Methacrylamides for Covalent Ligand Directed Release Chemistry” (Journal of the American Chemical Society, 2021).

The structures appear in SMILES notation.

For one experiment, the target named is BTK (Homo sapiens, UniProt Q06187). The experiment can be described thus: biochemical. The following applies: read-out: BTK inhibition (%).
Chain of BTK (Q06187 402-655 limits assumed): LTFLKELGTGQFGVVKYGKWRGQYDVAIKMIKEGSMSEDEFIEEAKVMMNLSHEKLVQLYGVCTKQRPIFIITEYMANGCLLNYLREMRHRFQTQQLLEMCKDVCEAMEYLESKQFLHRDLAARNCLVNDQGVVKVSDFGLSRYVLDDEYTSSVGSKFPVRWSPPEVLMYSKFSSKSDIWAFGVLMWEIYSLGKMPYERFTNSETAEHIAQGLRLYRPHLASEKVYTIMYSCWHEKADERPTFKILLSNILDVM
On to `COC1=C[C@@]23CCN(C)[C@@H](Cc4ccc(OC)c(O)c42)C3=CC1=O` [PCM-0216320], for which the inhibition – broadly, the change of the read-out against control, counted positive when it falls – at 10 µM came to 3.1%.

Still in this experiment, the particulars now being: read-out: BTK inhibition (%), 0.75 uM BTK, […] probe 3l, 15 min preincubation.
For `COc1cc2c(=O)c3c(O)c([C@@H]4O[C@H](CO[C@@H]5OC[C@](O)(CO)[C@H]5O)[C@@H](O)[C@H](O)[C@H]4O)c(O)cc3oc2cc1O` [PCM-0216492], the inhibition at 10 µM is -13.1%.
`CCCCCCCCCCCCCCCCOP(=O)([O-])OCC[N+](C)(C)C` [PCM-0090698]: the inhibition at 10 µM is -72.3%.
In the case of `CNCCN(C)Cc1cn[nH]c1-c1ccc(OC2CC(OCCC3CCOCC3)C2)cc1` (centres unmarked) [PCM-0215762], the inhibition at 10 µM was determined as 11.6%.
On to `CC1(C)O[C@@H]2C[C@H]3[C@@H]4CCC5=CC(=O)C=C[C@]5(C)[C@@]4(F)[C@@H](O)C[C@]3(C)[C@]2(C(=O)CO)O1` [PCM-0095180], for which the inhibition at 10 µM stood at 6.9%.
The same measure, in the same setting: the same measure for `CCCCCCCCCCCCCCCCCC[N+](C)(C)C` [PCM-0216157]: -27%; for `CNCC[C@@H](Oc1ccccc1C)c1ccccc1` [PCM-0086150]: 11.7%.
On to `O=c1[nH]cc(F)c(=O)[nH]1` [PCM-0065247], for which the inhibition at 10 µM was -0.7%.
`CC(=O)Oc1cc(C)c(OC(C)=O)c2ccccc12` [PCM-0215056]: the inhibition at 10 µM was -25.7%.
Same read-out and setting: as for `COc1ccc(CC2c3cc(OC)c(OC)cc3CC[N+]2(C)CCC(=O)OCCCCCOC(=O)CC[N+]2(C)CCc3cc(OC)c(OC)cc3C2Cc2ccc(OC)c(OC)c2)cc1OC` (centres unmarked) [PCM-0085763], the figure is -16.3%.
As to `Cc1c(CN2CCN(C(=O)[C@H](C)O)CC2)sc2c(N3CCOCC3)nc(-c3cnc(N)nc3)nc12` [PCM-0095406], the inhibition at 10 µM was determined as 75.2%.
Still for that read-out and setting: the same measure for `OCc1ccccc1O[C@@H]1O[C@H](CO)[C@@H](O)[C@H](O)[C@H]1O` [PCM-0086703]: -7.6%; for `C=CC[C@]1(O)CC[C@H]2[C@@H]3CCC4=CC(=O)CCC4=C3C=C[C@@]21C` [PCM-0095614]: -4.7%.
In the case of `CC1=C(C/C=C(\C)CCC[C@H](C)CCC[C@H](C)CCCC(C)C)C(=O)c2ccccc2C1=O` [PCM-0216261], the inhibition at 10 µM amounted to 7.8%.
Same read-out and setting: as for `CCC1(c2ccccc2)C(=O)NCNC1=O` [PCM-0065590], the figure is -17.1%.
Consider `C=C1CCC[C@]2(C)C[C@@H]3OC(=O)C(C)=C3C[C@@H]12` [PCM-0216545], for which the inhibition at 10 µM was -38.6%.
The same measure, in the same setting: as for `CC1CCC(C(=O)N(c2cc(C#CC(C)(C)C)sc2C(=O)O)C2CCC(O)CC2)CC1` (centres unmarked) [PCM-0095160], the figure is 2.3%.
The same measure, in the same setting: the same measure for `Nc1cc(N)c(N)cc1N` [PCM-0216082]: 31.7%.
Regarding `COc1ccc2[nH]cc(CCNC(C)=O)c2c1` [PCM-0065583], the inhibition at 10 µM came out at 11.7%.
For the compound `c1ccc(Cn2c(-c3ccc(OC[C@H](C4CCNCC4)n4c(-c5ccccc5)nc5ccccc54)cc3)nc3ccccc32)cc1` [PCM-0215350], the inhibition at 10 µM stood at 86.5%.
On the same count and under the same terms, as for `C[C@]12C=CC(=O)C=C1CC[C@@H]1[C@@H]2[C@@H](O)C[C@@]2(C)[C@H]1CC[C@]2(O)C(=O)CO` [PCM-0085835], the figure is -7%; as for `CCOC(=O)C1=C(C)NC(C)=C(C(=O)OC)C1c1cccc([N+](=O)[O-])c1` (centres unmarked) [PCM-0064714], -28%; as for `COc1cc2c(cc1OC)CN(CCc1ccc(NC(=O)c3cc(OC)c(OC)cc3NC(=O)c3cnc4ccccc4c3)cc1)CC2` [PCM-0095616], 4.6%.
As to `CC(=O)OC/C=C(/C)CCC=C(C)C` [PCM-0216620], the inhibition at 10 µM turned out to be 1.5%.
Same read-out and setting: as for `C=CC(=O)Nc1cccc(Oc2nc(Nc3ccc(N4CCN(C)CC4)cc3OC)ncc2Cl)c1` [PCM-0095043], the figure is 89%; as for `CC1=C(C(=O)OCCN(Cc2ccccc2)c2ccccc2)C(c2cccc([N+](=O)[O-])c2)C(P2(=O)OCC(C)(C)CO2)=C(C)N1` (centres unmarked) [PCM-0215151], 7.8%.
Still for that read-out and setting: as for `Cc1ncc([N+](=O)[O-])n1C` [PCM-0216192], the figure is -21.4%.
On the same count and under the same terms, the same measure for `CC(C)=C[C@H]1C[C@](C)(O)[C@@H]2[C@H]3CC[C@@H]4[C@@]5(C)CC[C@H](O[C@@H]6OC[C@H](O)[C@H](O[C@@H]7O[C@H](CO)[C@@H](O)[C@H](O)[C@H]7O[C@@H]7OC[C@@H](O)[C@H](O)[C@H]7O)[C@H]6O[C@@H]6O[C@@H](C)[C@H](O)[C@@H](O)[C@H]6O)C(C)(C)[C@@H]5CC[C@@]4(C)[C@@]34CO[C@@]2(C4)O1` [PCM-0216470]: 10%.
Turning to `COc1ccc(-c2oc3c(CC=C(C)C)c(O[C@@H]4O[C@H](CO)[C@@H](O)[C@H](O)[C@H]4O)cc(O)c3c(=O)c2O[C@@H]2O[C@@H](C)[C@H](O)[C@@H](O)[C@H]2O)cc1` [PCM-0094858], the inhibition at 10 µM is -0.8%.
With `O=C1CCC[C@@H]2[C@H]3CCCN4CCC[C@@H](CN12)[C@@H]34` [PCM-0094866], the inhibition at 10 µM was 11.7%.
Same read-out and setting: the same measure for `Cc1cc(Nc2cc(Cl)nc(Oc3ccc([N+](=O)[O-])cc3)n2)n[nH]1` [PCM-0215861]: 12.4%; for `C=C1CC[C@H]2C(=C)CC[C@H]3C(=C)C(=O)O[C@@H]3[C@@H]12` [PCM-0214878]: 32.7%; for `O=c1cc(-c2ccc(O)cc2)oc2cc(O)c(O)c(O)c12` [PCM-0216408]: 70.3%.
`CN(C)Cc1c[nH]c2ccccc12` [PCM-0091332]: the inhibition at 10 µM is -24.9%.
`C#Cc1cccc(Nc2ncnc3cc(OCCOC)c(OCCO)cc23)c1` [PCM-0095242]: the inhibition at 10 µM was 31%.
`Cc1ncc([N+](=O)[O-])n1CCO` [PCM-0085759]: the inhibition at 10 µM was -5.4%.
As for `CN1C(=O)[C@@H](NC(=O)c2cc(Cc3ccccc3)on2)COc2ccccc21` [PCM-0213452], the inhibition at 10 µM came to 3.1%.
As for `CCCCCCCCCCCCCC(=S)NCCCC[C@H](NC(=O)OCc1ccccc1)C(=O)Nc1ccccc1` [PCM-0215787], the inhibition at 10 µM is -6.2%.
The same measure, in the same setting: the same measure for `Cc1cc(NC(=O)c2cccc(NC(=O)/C=C/CN(C)C)c2)ccc1Nc1nccc(-c2cccnc2)n1` [PCM-0095741]: 9.7%.
Same read-out and setting: as for `Cc1c(C(=O)Nc2ccc(N3C[C@@H](C)O[C@@H](C)C3)nc2)cccc1-c1ccc(OC(F)(F)F)cc1` [PCM-0095316], the figure is 6.2%; as for `CO[C@H]1/C=C/O[C@@]2(C)Oc3c(C)c(O)c4c(O)c(c(/C=N/N5CCN(C6CCCC6)CC5)c(O)c4c3C2=O)NC(=O)/C(C)=C\C=C\[C@H](C)[C@H](O)[C@@H](C)[C@@H](O)[C@@H](C)[C@H](OC(C)=O)[C@@H]1C` [PCM-0086116], 43.6%; as for `O=C(NO)c1cnc(NC2(c3ccccc3)CC2)nc1` [PCM-0215891], -10.8%.
In the case of `COc1ccc(S(=O)(=O)Nc2nc(-c3cccc([N+](=O)[O-])c3)cs2)cc1OC` [PCM-0215595], the inhibition at 10 µM is 7.7%.
As for `CC(=O)[C@H]1CC[C@H]2[C@@H]3CC=C4C[C@@H](O)CC[C@]4(C)[C@H]3CC[C@]12C` [PCM-0086127], the inhibition at 10 µM was -22.6%.
Turning to `Cc1cc(N2CCCCC2)nc2ccccc12` [PCM-0215982], the inhibition at 10 µM worked out at 10%.
On the same count and under the same terms, as for `C[C@@]12CC[C@@H]3[C@@](CC[C@H]4[C@@]3(C)CCC[C@@]4(C)C(=O)O)(CC1=O)C2` [PCM-0215049], the figure is -16.3%.
Still for that read-out and setting: as for `CSc1ccc(C(=O)/C=C/c2cc(C)c(OC(C)(C)C(=O)O)c(C)c2)cc1` [PCM-0214917], the figure is 7%; as for `C[Si](C)(C)N=C(O[Si](C)(C)C)C(F)(F)F` [PCM-0216107], -6.9%.
Still for that read-out and setting: the same measure for `CCc1cc2c(cc1CC)CC(NC[C@H](O)c1ccc(O)c3[nH]c(=O)ccc13)C2` [PCM-0095564]: 19.5%; for `NC[C@H]1O[C@H](O[C@H]2[C@H](O)[C@@H](O[C@H]3O[C@H](CO)[C@@H](O)[C@H](N)[C@H]3O)[C@H](N)C[C@@H]2N)[C@H](O)[C@@H](O)[C@@H]1O` [PCM-0086137]: 23.8%.
With `C[C@@H]1CN(CC(=O)Nc2ccc3c(c2)Cc2cccc(-c4cc(=O)cc(N5CCOCC5)o4)c2S3)C[C@H](C)O1` [PCM-0095132], the inhibition at 10 µM turned out to be 26.2%.
For the compound `CC[C@@H](C)Nc1cc(C(=O)NC2C[C@H]3CC[C@@H](C2)N3c2ccc(C(=O)C3CC3)cn2)c(C)cc1C(N)=O` (some centres unmarked) [PCM-0215196], the inhibition at 10 µM is -0.8%.
Still for that read-out and setting: as for `COc1cc(O)c(C(=O)/C=C/c2ccccc2)c(OC)c1` [PCM-0216315], the figure is 6.9%; as for `CC(C)S(=O)(=O)c1ccc2nccc(Nc3ccc4scnc4c3)c2c1` [PCM-0213432], 26.2%.
The same measure, in the same setting: the same measure for `CCOc1nc2cccc(C(=O)O)c2n1Cc1ccc(-c2ccccc2-c2noc(=O)[nH]2)cc1` [PCM-0095534]: -3.1%; for `Cc1c(F)cc(C(=O)NC2CC2)cc1-c1ccc(C(=O)NCC(C)(C)C)cn1` [PCM-0095751]: -14.5%; for `CNS(=O)(=O)CC1CCC(N(C)c2ncnc3[nH]ccc23)CC1` (centres unmarked) [PCM-0215617]: 9.7%.
For the compound `CC(=O)c1ccc(NN=C(C(N)=O)C2=NC(C)(C)Cc3ccccc32)cc1` [PCM-0215663], the inhibition at 10 µM stood at 13.1%.
Same read-out and setting: the same measure for `OCCN(CCO)c1nc(N2CCCCC2)c2nc(N(CCO)CCO)nc(N3CCCCC3)c2n1` [PCM-0065264]: 10.9%; for `O=c1c(-c2ccc(O)cc2)coc2c([C@@H]3O[C@H](CO)[C@@H](O)[C@H](O)[C@H]3O)c(O)ccc12` [PCM-0094877]: -0.8%.
Consider `Oc1ccc(/C=C/c2cc(O)cc(O)c2)cc1` [PCM-0065629], for which the inhibition at 10 µM is 23.3%.
The same measure, in the same setting: as for `CC(C)(O)[C@@H]1CC[C@](C)([C@H]2[C@@H](O)C[C@@]3(C)[C@@H]4C[C@H](O)[C@H]5C(C)(C)[C@@H](O)CC[C@@]56C[C@@]46CC[C@]23C)O1` [PCM-0215101], the figure is -6.9%; as for `COc1ccc(CC(=O)Nc2nc3c(s2)CCc2ccccc2-3)cc1OC` [PCM-0215753], 55.9%.
On the same count and under the same terms, as for `c1cncc(CN2CCC(n3ncc4c(N5CCOCC5)nc(-c5ccc6[nH]ccc6c5)nc43)CC2)c1` [PCM-0095384], the figure is -27.6%; as for `Cc1ncc([N+](=O)[O-])n1CC(O)CCl` (centres unmarked) [PCM-0085772], -3.9%.
